Reference: patent publication US11771709B2, “ALK protein degradation agent and anti-tumor application thereof” (ShanghaiTech University, priority 2017, dated 2023)

How the values were obtained:
SR (NPM-ALK) cells = assay: Growth inhibition IC50 in ALCL SR cells (CCK8/WST, 72 hours); format: cell-based; details: 72 h, SR cells, WST; Brigatinib-based PROTAD molecules (Table 3)
Procedure: SR (NPM-ALK) and NCI-H2228 (EML4-ALK, V3) cells were purchased from ATCC. […] All Cells were cultured in RPMI1640 medium with 10% FBS and Penicillin-Streptomycin in 37° C. incubator with 5% CO2.
Cells were seeded at specific density in 96 well plates one day before treatment. […] Viable cells were measured via CCK8 reagent and IC50s were calculated via Prism Graphad. Experiments were repeated at least three times.

[1] = biological target: T1, ALK protein in H3122 (EML4-ALK) cells (Homo sapiens, UniProt Q9UM73); assay: Western blot of ALK protein level (degradation, DC50), ALK phosphorylation and downstream signaling in H3122 cells; format: cell-based; details: ALK protein degradation in H3122 cells
T1 construct: EML4 (Echinoderm microtubule-associated protein-like 4, Q9HC35) fusion partner, variant 1; host or cells: NCI-H3122 lung adenocarcinoma cells; the other entry of the earlier key: EML4 (Q9HC35, Echinoderm microtubule-associated protein-like 4)
T1 sequence (Q9UM73 with tags, fused parts or gaps): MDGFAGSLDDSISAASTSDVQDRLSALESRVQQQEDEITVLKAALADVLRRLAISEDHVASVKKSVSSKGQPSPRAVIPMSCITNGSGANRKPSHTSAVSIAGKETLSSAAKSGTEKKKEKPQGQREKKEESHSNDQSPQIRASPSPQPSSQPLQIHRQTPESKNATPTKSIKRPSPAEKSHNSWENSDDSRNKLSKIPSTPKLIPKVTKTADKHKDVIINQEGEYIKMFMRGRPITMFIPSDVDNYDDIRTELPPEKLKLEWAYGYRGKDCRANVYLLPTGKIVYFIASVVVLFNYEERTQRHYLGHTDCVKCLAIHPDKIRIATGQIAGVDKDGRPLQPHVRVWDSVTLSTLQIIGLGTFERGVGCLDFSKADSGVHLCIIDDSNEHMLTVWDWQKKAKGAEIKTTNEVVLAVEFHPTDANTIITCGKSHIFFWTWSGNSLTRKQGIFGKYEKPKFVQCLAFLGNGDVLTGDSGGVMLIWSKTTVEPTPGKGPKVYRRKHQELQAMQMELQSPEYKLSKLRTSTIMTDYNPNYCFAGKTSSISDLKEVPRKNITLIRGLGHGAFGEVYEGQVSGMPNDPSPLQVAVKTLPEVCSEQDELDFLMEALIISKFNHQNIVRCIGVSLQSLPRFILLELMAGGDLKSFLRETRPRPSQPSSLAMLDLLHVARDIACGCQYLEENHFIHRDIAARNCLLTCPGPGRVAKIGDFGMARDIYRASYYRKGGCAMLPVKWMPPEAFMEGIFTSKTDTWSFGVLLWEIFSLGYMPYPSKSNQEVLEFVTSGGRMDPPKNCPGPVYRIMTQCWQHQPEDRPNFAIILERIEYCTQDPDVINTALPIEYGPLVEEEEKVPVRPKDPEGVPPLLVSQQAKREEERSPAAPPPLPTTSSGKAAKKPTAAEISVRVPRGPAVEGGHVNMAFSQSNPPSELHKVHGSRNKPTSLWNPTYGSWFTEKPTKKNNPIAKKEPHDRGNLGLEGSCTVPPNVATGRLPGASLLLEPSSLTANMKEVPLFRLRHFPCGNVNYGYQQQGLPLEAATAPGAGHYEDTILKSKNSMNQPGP

| Compound | IC50 (SR (NPM-ALK) cells) [nM] | DC50 [1] [nM] |
| --- | --- | --- |
| COc1cc(N2CCN(C(=O)CCNc3cccc4c3C(=O)N(C3CCC(=O)NC3=O)C4=O)CC2)ccc1Nc1ncc(Cl)c(Nc2ccccc2P(C)(C)=O)n1 (centres unmarked) [SIAIS1197057, 4-((3-(4-(4-((5-chloro-4-((2-(dimethylphosphoryl)phenyl)amino)pyrimidin-2-yl)amino)-3-methoxyphenyl)piperazin-1-yl)-3-oxopropyl)amino)-2-(2,6-dioxopiperidin-3-yl)isoindoline-1,3-dione] | 17.7 ± 9.6 | 50 to 500 |
| COc1cc(N2CCN(C(=O)CCCNc3cccc4c3C(=O)N(C3CCC(=O)NC3=O)C4=O)CC2)ccc1Nc1ncc(Cl)c(Nc2ccccc2P(C)(C)=O)n1 (centres unmarked) [SIAIS1197059, 4-((4-(4-(4-((5-chloro-4-((2-(dimethylphosphoryl)phenyl)amino)pyrimidin-2-yl)amino)-3-methoxyphenyl)piperazin-1-yl)-4-oxobutyl)amino)-2-(2,6-dioxopiperidin-3-yl)isoindoline-1,3-dione] | 10.7 ± 6.2 | 1 to 50 |
| COc1cc(N2CCN(C(=O)CCCCNc3cccc4c3C(=O)N(C3CCC(=O)NC3=O)C4=O)CC2)ccc1Nc1ncc(Cl)c(Nc2ccccc2P(C)(C)=O)n1 (centres unmarked) [SIAIS1197061, 4-((5-(4-(4-((5-chloro-4-((2-(dimethylphosphoryl)phenyl)amino)pyrimidin-2-yl)amino)-3-methoxyphenyl)piperazin-1-yl)-5-oxopentyl)amino)-2-(2,6-dioxopiperidin-3-yl)isoindoline-1,3-dione] | 8 ± 4.4 | 50 to 500 |
| COc1cc(N2CCN(C(=O)CCCCCNc3cccc4c3C(=O)N(C3CCC(=O)NC3=O)C4=O)CC2)ccc1Nc1ncc(Cl)c(Nc2ccccc2P(C)(C)=O)n1 (centres unmarked) [SIAIS1197063, 4-((6-(4-(4-((5-chloro-4-((2-(dimethylphosphoryl)phenyl)amino)pyrimidin-2-yl)amino)-3-methoxyphenyl)piperazin-1-yl)-6-oxohexyl)amino)-2-(2,6-dioxopiperidin-3-yl)isoindoline-1,3-dione] | 14.1 ± 7.3 | 50 to 500 |
| COc1cc(N2CCN(C(=O)CCOCCNc3cccc4c3C(=O)N(C3CCC(=O)NC3=O)C4=O)CC2)ccc1Nc1ncc(Cl)c(Nc2ccccc2P(C)(C)=O)n1 (centres unmarked) [SIAIS1197065, 4-((2-(3-(4-(4-((5-chloro-4-((2-(dimethylphosphoryl)phenyl)amino)pyrimidin-2-yl)amino)-3-methoxyphenyl)piperazin-1-yl)-3-oxopropoxy)ethyl)amino)-2-(2,6-dioxopiperidin-3-yl)isoindoline-1,3-dione] | 20.7 ± 14.9 | 100 to 500 |
| COc1cc(N2CCN(C(=O)CCOCCOCCNc3cccc4c3C(=O)N(C3CCC(=O)NC3=O)C4=O)CC2)ccc1Nc1ncc(Cl)c(Nc2ccccc2P(C)(C)=O)n1 (centres unmarked) [SIAIS1197067, 4-((2-(2-(3-(4-(4-((5-chloro-4-((2-(dimethylphosphoryl)phenyl)amino)pyrimidin-2-yl)amino)-3-methoxyphenyl)piperazin-1-yl)-3-oxopropoxy)ethoxy)ethyl)amino)-2-(2,6-dioxopiperidin-3-yl)isoindoline-1,3-dione] | 16.1 ± 6.1 | 100 to 500 |
| COc1cc(N2CCN(C(=O)CCOCCOCCOCCNc3cccc4c3C(=O)N(C3CCC(=O)NC3=O)C4=O)CC2)ccc1Nc1ncc(C)c(Nc2ccccc2P(C)(C)=O)n1 (centres unmarked) [SIAIS1197069, 4-((2-(2-(2-(3-(4-(4-((4-((2-(dimethylphosphoryl)phenyl)amino)-5-methylpyrimidin-2-yl)amino)-3-methoxyphenyl)piperazin-1-yl)-3-oxopropoxy)ethoxy)ethoxy)ethyl)amino)-2-(2,6-dioxopiperidin-3-yl)isoindoline-1,3-dione] | 22.3 ± 18.2 | 100 to 500 |
| COc1cc(N2CCN(C(=O)CCOCCOCCOCCOCCOCCNc3cccc4c3C(=O)N(C3CCC(=O)NC3=O)C4=O)CC2)ccc1Nc1ncc(Cl)c(Nc2ccccc2P(C)(C)=O)n1 (centres unmarked) [SIAIS1197073, 4-((18-(4-(4-((5-chloro-4-((2-(dimethylphosphoryl)phenyl)amino)pyrimidin-2-yl)amino)-3-methoxyphenyl)piperazin-1-yl)-18-oxo-3,6,9,12,15-pentaoxaoctadecyl)amino)-2-(2,6-dioxopiperidin-3-yl)isoindoline-1,3-dione] | 34.2 ± 23.9 | 100 to 500 |
| COc1cc(N2CCN(C(=O)CCOCCOCCOCCC(=O)N[C@H](C(=O)N3C[C@H](O)C[C@H]3C(=O)NCc3ccc(-c4scnc4C)cc3)C(C)(C)C)CC2)ccc1Nc1ncc(Cl)c(Nc2ccccc2P(C)(C)=O)n1 [SIAIS1197081, (2S,4R)-1-((S)-2-(tert-butyl)-16-(4-(4-((5-chloro-4-((2-(dimethylphosphoryl)phenyl)amino)pyrimidin-2-yl)amino)-3-methoxyphenyl)piperazin-1-yl)-4,16-dioxo-7,10,13-trioxa-3-azahexadecanoyl)-4-hydroxy-N-(4-(4-methylthiazol-5-yl)benzyl)pyrrolidine-2-carboxamide] | 32.5 ± 19.8 | 50 to 500 |
| COc1cc(N2CCN(C(=O)CCOCCOCCOCCOCCC(=O)N[C@H](C(=O)N3C[C@H](O)C[C@H]3C(=O)NCc3ccc(-c4scnc4C)cc3)C(C)(C)C)CC2)ccc1Nc1ncc(Cl)c(Nc2ccccc2P(C)(C)=O)n1 [SIAIS1197083, (2S,4R)-1-((S)-2-(tert-butyl)-19-(4-(4-((5-chloro-4-((2-(dimethylphosphoryl)phenyl)amino)pyrimidin-2-yl)amino)-3-methoxyphenyl)piperazin-1-yl)-4,19-dioxo-7,10,13,16-tetraoxa-3-azanonadecanoyl)-4-hydroxy-N-(4-(4-methylthiazol-5-yl)benzyl)pyrrolidine-2-carboxamide] | 49.9 ± 30.8 | 50 to 500 |
| COc1cc(N2CCN(C(=O)CCOCCOCCOCCOCCOCCC(=O)N[C@H](C(=O)N3C[C@H](O)C[C@H]3C(=O)NCc3ccc(-c4scnc4C)cc3)C(C)(C)C)CC2)ccc1Nc1ncc(Cl)c(Nc2ccccc2P(C)(C)=O)n1 [SIAIS1197085, (2S,4R)-1-((S)-2-(tert-butyl)-22-(4-(4-((5-chloro-4-((2-(dimethylphosphoryl)phenyl)amino)pyrimidin-2-yl)amino)-3-methoxyphenyl)piperazin-1-yl)-4,22-dioxo-7,10,13,16,19-pentaoxa-3-azadocosanoyl)-4-hydroxy-N-(4-(4-methylthiazol-5-yl)benzyl)pyrrolidine-2-carboxamide] | 62.5 ± 39.2 | 20 to 100 |
| COc1cc(N2CCN(C(=O)COCCOCC(=O)N[C@H](C(=O)N3C[C@H](O)C[C@H]3C(=O)NCc3ccc(-c4scnc4C)cc3)C(C)(C)C)CC2)ccc1Nc1ncc(Cl)c(Nc2ccccc2P(C)(C)=O)n1 [SIAIS1197087, (2S,4R)-1-((S)-2-(2-(2-(2-(4-(4-((5-chloro-4-((2-(dimethylphosphoryl)phenyl)amino)pyrimidin-2-yl)amino)-3-methoxyphenyl)piperazin-1-yl)-2-oxoethoxy)ethoxy)acetamido)-3,3-dimethylbutanoyl)-4-hydroxy-N-(4-(4-methylthiazol-5-yl)benzyl)pyrrolidine-2-carboxamide] | 10.6 ± 2.4 | 50 to 500 |
| COc1cc(N2CCN(C(=O)CCC(=O)N[C@H](C(=O)N3C[C@H](O)C[C@H]3C(=O)NCc3ccc(-c4scnc4C)cc3)C(C)(C)C)CC2)ccc1Nc1ncc(Cl)c(Nc2ccccc2P(C)(C)=O)n1 [SIAIS1197145, (2S,4R)-1-((S)-2-(4-(4-(4-((5-chloro-4-((2-(dimethylphosphoryl)phenyl)amino)pyrimidin-2-yl)amino)-3-methoxyphenyl)piperazin-1-yl)-4-oxobutanamido)-3,3-dimethylbutanoyl)-4-hydroxy-N-(4-(4-methylthiazol-5-yl)benzyl)pyrrolidine-2-carboxamide] | 8.5 ± 5.6 | 1 to 50 |
| COc1cc(N2CCN(C(=O)CCCC(=O)N[C@H](C(=O)N3C[C@H](O)C[C@H]3C(=O)NCc3ccc(-c4scnc4C)cc3)C(C)(C)C)CC2)ccc1Nc1ncc(Cl)c(Nc2ccccc2P(C)(C)=O)n1 [SIAIS1197147, (2S,4R)-1-((S)-2-(5-(4-(4-((5-chloro-4-((2-(dimethylphosphoryl)phenyl)amino)pyrimidin-2-yl)amino)-3-methoxyphenyl)piperazin-1-yl)-5-oxopentanamido)-3,3-dimethylbutanoyl)-4-hydroxy-N-(4-(4-methylthiazol-5-yl)benzyl)pyrrolidine-2-carboxamide] | 14.2 ± 8.2 | 20 to 100 |
| COc1cc(N2CCN(C(=O)CCCCC(=O)N[C@H](C(=O)N3C[C@H](O)C[C@H]3C(=O)NCc3ccc(-c4scnc4C)cc3)C(C)(C)C)CC2)ccc1Nc1ncc(Cl)c(Nc2ccccc2P(C)(C)=O)n1 [SIAIS1197149, (2S,4R)-1-((S)-2-(6-(4-(4-((5-chloro-4-((2-(dimethylphosphoryl)phenyl)amino)pyrimidin-2-yl)amino)-3-methoxyphenyl)piperazin-1-yl)-6-oxohexanamido)-3,3-dimethylbutanoyl)-4-hydroxy-N-(4-(4-methylthiazol-5-yl)benzyl)pyrrolidine-2-carboxamide] | 8.2 ± 3.9 | 20 to 100 |
| COc1cc(N2CCN(C(=O)CCCCCC(=O)N[C@H](C(=O)N3C[C@H](O)C[C@H]3C(=O)NCc3ccc(-c4scnc4C)cc3)C(C)(C)C)CC2)ccc1Nc1ncc(Cl)c(Nc2ccccc2P(C)(C)=O)n1 [SIAIS1197151, (2S,4R)-1-((S)-2-(7-(4-(4-((5-chloro-4-((2-(dimethylphosphoryl)phenyl)amino)pyrimidin-2-yl)amino)-3-methoxyphenyl)piperazin-1-yl)-7-oxoheptanamido)-3,3-dimethylbutanoyl)-4-hydroxy-N-(4-(4-methylthiazol-5-yl)benzyl)pyrrolidine-2-carboxamide] | 16.7 ± 7.3 | 20 to 100 |
